Values of other authors as cited in patent publication US12138351B2, “Pharmaceutical composition for oral administration comprising aminopyrimidine derivative or pharmaceutically acceptable salt, hydrate, or solvate thereof” (Janssen Biotech, Inc., priority 2020, dated 2024).
Read-outs that look alike come from different tables or passages of the source.

Tests used:
[1] = compared to the compound in the form of free-base
wild-type EGFR = wild-type EGFR (Homo sapiens, UniProt P00533); details: known irreversible EGFR TKI
Chain of wild-type EGFR (P00533 25-1210): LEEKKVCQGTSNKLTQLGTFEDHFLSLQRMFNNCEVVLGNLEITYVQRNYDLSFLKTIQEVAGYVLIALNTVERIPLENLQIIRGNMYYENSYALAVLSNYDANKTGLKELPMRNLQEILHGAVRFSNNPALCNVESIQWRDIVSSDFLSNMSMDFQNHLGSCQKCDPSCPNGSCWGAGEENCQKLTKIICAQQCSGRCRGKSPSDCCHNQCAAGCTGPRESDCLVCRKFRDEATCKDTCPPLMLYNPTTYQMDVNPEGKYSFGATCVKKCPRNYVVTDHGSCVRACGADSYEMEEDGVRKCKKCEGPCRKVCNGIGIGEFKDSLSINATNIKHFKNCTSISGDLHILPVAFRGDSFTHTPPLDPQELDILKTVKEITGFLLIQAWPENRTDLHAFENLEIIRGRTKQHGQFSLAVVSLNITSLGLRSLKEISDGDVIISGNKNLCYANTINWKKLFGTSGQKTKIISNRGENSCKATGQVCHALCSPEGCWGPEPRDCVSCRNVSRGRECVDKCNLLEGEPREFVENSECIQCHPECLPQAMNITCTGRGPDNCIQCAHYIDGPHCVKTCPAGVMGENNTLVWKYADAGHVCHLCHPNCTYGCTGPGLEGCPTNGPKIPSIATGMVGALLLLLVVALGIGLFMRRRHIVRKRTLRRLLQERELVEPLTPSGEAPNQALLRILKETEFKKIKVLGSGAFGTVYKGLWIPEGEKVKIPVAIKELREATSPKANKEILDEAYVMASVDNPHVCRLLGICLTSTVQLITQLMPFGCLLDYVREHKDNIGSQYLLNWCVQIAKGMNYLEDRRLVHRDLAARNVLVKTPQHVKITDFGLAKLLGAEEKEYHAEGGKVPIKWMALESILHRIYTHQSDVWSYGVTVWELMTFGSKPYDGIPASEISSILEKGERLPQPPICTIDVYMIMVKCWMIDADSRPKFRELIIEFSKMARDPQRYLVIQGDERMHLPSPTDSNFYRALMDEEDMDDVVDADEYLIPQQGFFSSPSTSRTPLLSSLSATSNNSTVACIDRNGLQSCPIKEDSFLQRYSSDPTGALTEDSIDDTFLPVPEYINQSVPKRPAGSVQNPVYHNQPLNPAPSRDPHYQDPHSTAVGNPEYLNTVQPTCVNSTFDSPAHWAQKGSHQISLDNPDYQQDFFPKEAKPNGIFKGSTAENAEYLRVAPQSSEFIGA

[2] = system: T790M single active mutation (EGFRm) and double mutation; details: known irreversible EGFR TKI

Row | Compound | stability [1] | bioavailability (co-administration with, e.g., an antacid, as well as administration alone) | bioavailability (compared to the compound in the form of free-base) | effect on wild-type EGFR (wild-type EGFR) | inhibitory activity on T790M single active mutation (EGFRm) and double mutation [2]
1 | N-(5-(4-(4-((dimethylamino)methyl)-3-phenyl-1H-pyrazol-1-yl)pirimidine-2-ylamino)-4-methoxy-2-morpholinophenyl)acrylamide mesylate [Lazertinib mesylate] | excellent | excellent bioavailability | excellent |  | 
2 | C=CC(=O)Nc1cc(Nc2nccc(-n3cc(CN(C)C)c(-c4ccccc4)n3)n2)c(OC)cc1N1CCOCC1 [Lazertinib, N-(5-(4-(4-((dimethylamino)methyl)-3-phenyl-1H-pyrazol-1-yl)pirimidine-2-ylamino)-4-methoxy-2-morpholinophenyl)acrylamide] |  |  |  | less effect | strong inhibitory activity
